Tests used:
[1] = tested on: E. coli biofilm; assay: treatment of pre-fabricated biofilms of different stages for 24 h, LIVE/DEAD staining; format: cell-based; details: 200 nM, treated 24 h
Method: As depicted in Figure 2, E. coli biofilm in different stages - namely, in colony formation stage (1 day growth ["cultivated 1 + 1 days"]) and in maturation stages (3 days growth ["cultivated 1 + 3 days"] or 5 days growth ["cultivated 1 + 5 days"], respectively), were pre-fabricated according to literature^16 and then treated with a dose of 200 nM ZW-PA nanoparticles, 200 nM ampicillin or PBS for another 24 h. Afterwards, the resulting biofilms on the 2nd day, the 4th day and the 6th day were observed. A LIVE/DEAD staining of the E. coli cells was applied. By this staining, living cells are stained green, while dead cells are stained red. […] Specifically, the biofilm height increased from 8 µm on the 2nd day (1st + 1 day) to 25 µm on the 6th day (1st + 5 days). Only green (living) cells could be observed. The scale bars in all plots of Figure 2 represent 50 µm.

[2] = tested on: E. coli biofilm; assay: prolonged incubation (24 h, 72 h, 120 h) of 1-day pre-fabricated biofilm, regrowth and resistance; format: cell-based; details: 1-day biofilm, 200 nM
Method: Biofilms are considered to be highly resistant to antibacterial agents due to restricted penetration of antibacterial agents into biofilms, slow growth owing to nutrient limitation, expression of genes involved in the general stress response, and emergence of a biofilm-specific phenotype. Thus, it is important to investigate the emergence of resistances against a new antibacterial agent used for combating biofilms. Therefore, ZW-PA nanoparticles in a concentration of 200 nM were applied to a biofilm pre-fabricated for 1 day. Subsequently, the biofilm was incubated with ZW-PA nanoparticles and investigated after 1 day incubation (24 h, cultivated 1 + 1 days), after 3 days incubation (72 h, cultivated 1 + 3 days), and after 5 days incubation (120 h, cultivated 1 + 5 days). PBS and 200 nM ampicillin were used as controls. The scale bars in all plots of Figure 3 represent 50 µm.

[3] = biofilm grown 1 day (1 + 1 days)
[4] = biofilm grown 5 days (1 + 5 days)

CC1(C)S[C@@H]2[C@H](NC(=O)[C@H](N)c3ccccc3)C(=O)N2[C@H]1C(=O)O [ampicillin]
LIVE/DEAD staining, killing of cells in biofilm [1, 3]: less than the half of the cells, were stained red
biofilm height [1, 3]: 5 µm
LIVE/DEAD staining, killing of cells in biofilm ([1]; biofilm grown 3 days (1 + 3 days)): most of the cells were still alive
LIVE/DEAD staining, killing of cells in biofilm [1, 4]: effective only against the cells on the surface layer of the biofilm
biofilm height [1, 4]: 24 µm
LIVE/DEAD staining, killing of cells in biofilm ([2]; 24 h incubation (1 + 1 days)): a part of the cells could be killed
LIVE/DEAD staining, living versus dead cells ([2]; 72 h incubation (1 + 3 days)): more green than red cells
LIVE/DEAD staining, living versus dead cells ([2]; 120 h incubation (1 + 5 days)): more red than green cells
cell density and reformation of the biofilm on further incubation ([2]; further incubated to 72 h and 120 h): the biofilm could gradually reform

Source: EP3502093A1, “ZWITTERIONIC PILLARARENE DERIVATIVE” (Freie Universität Berlin, priority 2017, dated 2019)
